Test results as given in article PMC2430196, “Antagonist affinity measurements at the Gi-coupled human histamine H3 receptor expressed in CHO cells” (BMC Pharmacology, 2008).
Like-named read-outs stand apart in the source and are kept apart here. Blank lines part the entries; values can stand above or below the compound they belong to.

How the values were obtained:
[1] = target: T1, human histamine H3 receptor (Homo sapiens, UniProt Q9Y5N1); assay: CRE-SPAP gene transcription in forskolin-stimulated CHO-H3-SPAP cells; conditions: for Schild slope / Kd / pKD values: CRE-SPAP; for Schild slope: 3 antagonist concentrations; for agonist character in CRE-SPAP screen: inhibition of forskolin-stimulated CRE-SPAP production; for pIC50, CRE-SPAP: agonism, inhibition of 4 μM forskolin-stimulated CRE-SPAP production
T1 sequence (Q9Y5N1 whole entry): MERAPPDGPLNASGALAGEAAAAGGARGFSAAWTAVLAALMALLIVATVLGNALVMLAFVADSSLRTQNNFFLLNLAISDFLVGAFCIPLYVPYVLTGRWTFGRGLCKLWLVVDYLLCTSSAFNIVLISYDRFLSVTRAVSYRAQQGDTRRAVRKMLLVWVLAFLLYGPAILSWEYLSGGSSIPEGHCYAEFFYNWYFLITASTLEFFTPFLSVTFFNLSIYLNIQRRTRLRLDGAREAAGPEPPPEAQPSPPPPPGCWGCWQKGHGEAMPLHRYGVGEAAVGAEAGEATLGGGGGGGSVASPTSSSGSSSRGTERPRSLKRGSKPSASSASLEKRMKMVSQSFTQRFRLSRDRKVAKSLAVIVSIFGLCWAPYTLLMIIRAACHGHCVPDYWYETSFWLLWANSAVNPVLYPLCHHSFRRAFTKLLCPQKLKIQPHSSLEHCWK
Description: (§1) The transfected cells were selected for neomycin resistance (1 mg/ml; for H3 receptor) and hygromycin resistance (200 μg/ml; for CRE-SPAP reporter gene) for 3 weeks and passaged twice during in this period. A single clone was then isolated by dilution cloning to give a clonal line (CHO-H3-SPAP cells). The parent cell CRE-SPAP was also used for control experiments (CHO-SPAP cells).
(§2) Cells were grown to confluence in 96-well tissue culture plates. The cells were then serum starved by removing the media and replacing it with 100 μl serum free media (DMEM/F12 containing 2 mM L-glutamine). […] Where used, pertussis toxin, at a final concentration of 100 ng/ml was added to the serum-free media and thus incubated with the cells for 24 hours. On the day of experimentation, the serum-free media was removed and replaced with 100 μl serum-free media or 100 μl serum-free media containing an antagonist at the final required concentration and the cells incubated for 1 hour. Agonist in 10 μl (diluted in serum free media) was then added to each well and the cells incubated for 10 minutes. Forskolin was then added to all but the basal wells to give a final well concentration of 4 μM and the plates incubated for 5 hours. After 5 hours, the media and all drugs were removed. […] The plates were then incubated at 65°C for 30 minutes to destroy any endogenous phosphatases. After cooling to 37°C, 100 μl 5 mM pNPP in diethanolamine buffer was added to each well and the plates incubated at 37°C in a normal atmosphere until the yellow colour developed.
(§3) Sigmoidal concentration-response curves were fitted to the data using Graphpad Prism 2 and the following equation:
(§4) Antagonist KD values were then calculated from the shift of the agonist concentration responses in the presence of a fixed concentration of antagonist using the following equation:
(§5) where DR (dose ratio) is the ratio of the agonist concentration required to stimulate an identical response in the presence and absence of a fixed concentration of antagonist [B].
(§6) In experiments where three different fixed concentrations of the same antagonist were used, Schild plots were constructed using the following equation:
Log (DR-1) = log [B] - log (KD)
(§7) These points were then fitted to a straight line.
(§8) Partial agonist dissociation constants were therefore estimated according to the method of Stephenson [35] using the following equation:
(§9) KD partial agonist=X.[P]/1−Xwhere X=[A2]−[A1]/[A3]

[2] = target: T1, human histamine H3 receptor; assay: 3H-cAMP accumulation in forskolin-stimulated CHO-H3-SPAP cells; assay type: cell-based; set-up: secondarily transfected with the full length human histamine H3 receptor; host or cells: CHO-K1 cells with CRE-SPAP reporter (clonal line CHO-H3-SPAP); conditions: for intrinsic activity response in 3H-cAMP accumulation: n = 4
Description: Cells were grown to confluence in 24-well plates. The media was removed and the cells pre-labelled with ^3H-adenine by incubation with 2 μCi/ml ^3H-adenine in serum-free media (0.5 ml per well) for 3 hours. The ^3H-adenine was then removed and the cells washed by the addition then removal of 1 ml serum-free media. […] Forskolin (final concentration of 10 μM) was then added to all but the basal wells and the plates incubated for 30 minutes. The reaction was terminated by the addition of 50 μl concentrated HCl per well and the plates were then frozen. Later, the plates were thawed and ^3H-cAMP separated from other ^3H-nucleotides by sequential Dowex and alumina column chromatography, as previously described.
When the intrinsic efficacy of the antagonist ligands was examined, the antagonists were incubated for 5 hours at 37°C in order to maximise the chance of detecting any changes in ^3H-cAMP accumulation.
Response=Emax×[A]/IC50+[A]

[3] = system: CHO-SPAP cells; assay: CRE-SPAP gene transcription in parent CHO-SPAP cells (without the H3 receptor); assay type: cell-based, Chinese hamster; conditions: for IC50: Cricetulus griseus, CHO-SPAP cells (without the receptor), read-out: pIC50, CRE-SPAP, low potency component (converted)
Description: The response to all ligand used in this study was examined in the parent CHO-SPAP cells (expressing the reporter but not the human H3 receptor). Full 7-point concentration response curves were constructed, in the presence and absence of 4 μM forskolin. […].

[4] = system: CHO-H3-SPAP cells; assay: Trypan blue uptake in CHO-H3-SPAP cells; conditions: 5 hours incubation
[5] = target: T1, human histamine H3 receptor; assay: cell-based
Description: as §1, §2, §3, §4, §5, §6
Log (DR-1) = log [B] - log (KD)
as §7, §8, §9

[6] = target: T1, human histamine H3 receptor
Description: as §1, §2, §3, §4, §5, §6
Log (DR-1) = log [B] - log (KD)
as §7, §8, §9

[7] = agonism, inhibition of 10 μM forskolin-stimulated 3H-cAMP accumulation, CHO-H3-SPAP cells, read-out: pIC50, 3H-cAMP accumulation (converted)
[8] = Log KD values, agonist N-α-methylhistamine
[9] = Log KD values, agonist R-α-methylhistamine
[10] = Log KD values, agonist S-α-methylhistamine
[11] = Log KD values, agonist VUF 8430
[12] = Log KD values, agonist histamine
[13] = Log KD values, agonist immethridine
[14] = Log KD values, agonist impentamine (first component of the response)
[15] = Log KD values, agonist proxyfan
[16] = agonism, inhibition of 10 μM forskolin-stimulated 3H-cAMP accumulation, CHO-H3-SPAP cells

Structure (SMILES): c1cc(Cc2cnc[nH]2)ccn1 [immethridine]
IC50 [1]: 0.389 nM | IC50 [2]: 0.174 nM

Structure (SMILES): NC(=NCc1ccc(Cl)cc1)SCCCc1cnc[nH]1 [clobenpropit]
Schild slope ([1]; agonist N-α-methylhistamine): 1.08 ± 0.07 | Schild slope ([1]; agonist R-α-methylhistamine): 1.10 ± 0.06 | Schild slope ([1]; agonist S-α-methylhistamine): 1.09 ± 0.04 | Schild slope ([1]; agonist histamine): 0.98 ± 0.03 | Schild slope ([1]; agonist imetit): 1.02 ± 0.04 | Schild slope ([1]; agonist immepip): 1.05 ± 0.02 | Schild slope ([1]; agonist immethridine): 1.02 ± 0.04 | intrinsic activity response in 3H-cAMP accumulation ([2]; 5 hours incubation with ligand): No responses

Structure (SMILES): NCCCCCc1cnc[nH]1 [impentamine]
IC50 ([3]; with forskolin): 4680 nM | IC50 ([3]; without forskolin): 3890 nM | intracellular uptake of trypan blue [4]: did not show any intracellular uptake of trypan blue | agonist character in CRE-SPAP screen ([1]; CHO-H3-SPAP cells): partial agonist actions | IC50 ([1]; pIC50, CRE-SPAP, low potency component, CHO-H3-SPAP cells, absence of forskolin, with PTX pre-incubation): 5130 nM | IC50 ([1]; pIC50, CRE-SPAP, low potency component, CHO-H3-SPAP cells, absence of forskolin, without PTX pre-incubation): 6610 nM | IC50 ([1]; pIC50, CRE-SPAP, second component remaining after PTX, forskolin-stimulated CHO-H3-SPAP cells, 24 hours pre-incubation with PTX): 6030 nM | IC50 ([1]; pIC50 Site 1, CRE-SPAP, first component of two-component response, forskolin-stimulated CHO-H3-SPAP cells): 25.7 nM | pIC50 Site 2, CRE-SPAP ([1]; second component of two-component response, forskolin-stimulated CHO-H3-SPAP cells): Site 2 5.40 ± 0.05 | IC50 ([2]; read-out: pIC50, 3H-cAMP accumulation (converted)): 3.72 nM

Structure (SMILES): Cc1nc(N)sc1CCN [amthamine]
IC50 [1]: 13500 nM

Structure (SMILES): S=C(NC1CCCCC1)N1CCC(c2cnc[nH]2)CC1 [thioperamide]
Schild slope ([1]; agonist N-α-methylhistamine): 0.98 ± 0.07 | Schild slope ([1]; agonist R-α-methylhistamine): 1.00 ± 0.05 | Schild slope ([1]; agonist S-α-methylhistamine): 1.01 ± 0.08 | Schild slope ([1]; agonist histamine): 1.01 ± 0.03 | Schild slope ([1]; agonist imetit): 1.02 ± 0.07 | Schild slope ([1]; agonist immepip): 1.06 ± 0.02 | Schild slope ([1]; agonist immethridine): 1.08 ± 0.04 | Schild slope ([1]; agonist proxyfan): 1.02 ± 0.03 | inverse agonist response, 3H-cAMP accumulation ([2]; 5 hours incubation with ligand): 106.3 ± 2.6 % basal

Structure (SMILES): Cc1nc[nH]c1CCN [4-methylhistamine]
IC50 [1]: 11500 nM

Structure (SMILES): c1cc(CN2CCCCC2)cc(OCCCNc2nc3ccccc3s2)c1 [zolatidine]
Kd [6]: 282 nM | pKD values ([1]; agonist N-α-methylhistamine): 6.46 ± 0.07 | Schild slope ([1]; agonist N-α-methylhistamine): 1.10 ± 0.12 | pKD values ([1]; agonist R-α-methylhistamine): 6.52 ± 0.06 | Schild slope ([1]; agonist R-α-methylhistamine): 1.04 ± 0.04 | pKD values ([1]; agonist S-α-methylhistamine): 6.54 ± 0.07 | Schild slope ([1]; agonist S-α-methylhistamine): 1.10 ± 0.07 | pKD values ([1]; agonist VUF 8430): 6.38 ± 0.10 | pKD values ([1]; agonist histamine): 6.51 ± 0.07 | Schild slope ([1]; agonist histamine): 1.01 ± 0.04 | pKD values ([1]; agonist imetit): 6.62 ± 0.08 | Schild slope ([1]; agonist imetit): 1.17 ± 0.05 | Schild slope ([1]; agonist immepip): 1.18 ± 0.08 | pKD values ([1]; agonist immethridine): 6.66 ± 0.05 | Schild slope ([1]; agonist immethridine): 0.96 ± 0.02 | pKD values ([1]; agonist impentamine (first component of the response)): 6.52 ± 0.10 | pKD values ([1]; agonist proxyfan): 6.78 ± 0.06 | Schild slope ([1]; agonist proxyfan): 0.91 ± 0.11 | intrinsic activity response in 3H-cAMP accumulation ([2]; 5 hours incubation with ligand): No responses

Structure (SMILES): NCCc1ccccn1 [2-pyridylethylamine]
IC50 [1]: > 100000 nM

Structure (SMILES): CC(CCCCC(=O)Nc1ccc(C(F)(F)F)cc1)NCCc1cnc[nH]1 (centres unmarked) [HTMT, histamine trifluoromethyl toluidide]
pIC50, CRE-SPAP ([1]; CHO-H3-SPAP cells): 5.21 ± 0.18

Structure (SMILES): CNCCc1cnc[nH]1 [N-α-methylhistamine]
pIC50, CRE-SPAP ([1]; CHO-H3-SPAP cells): 8.89 ± 0.04 | pIC50, 3H-cAMP accumulation [2, 16]: 9.45 ± 0.05

Structure (SMILES): Cn1cncc1CCN [3-methylhistamine]
IC50 [1]: 13500 nM

Further lines, with some results ahead:

IC50 [1]: 0.224 nM | IC50 [2]: 0.0501 nM
Structure (SMILES): c1nc(CC2CCNCC2)c[nH]1 [immepip]

Kd [5]: 8.13 nM | Schild slope ([1]; agonist N-α-methylhistamine): 0.98 ± 0.05 | Schild slope ([1]; agonist R-α-methylhistamine): 1.00 ± 0.06 | Schild slope ([1]; agonist S-α-methylhistamine): 1.08 ± 0.04 | Schild slope ([1]; agonist histamine): 1.07 ± 0.03 | Schild slope ([1]; agonist imetit): 1.18 ± 0.09 | Schild slope ([1]; agonist immepip): 1.09 ± 0.05 | Schild slope ([1]; agonist immethridine): 1.14 ± 0.08 | Kd ([1]; pKD values, agonist N-α-methylhistamine): 5.37 nM | Kd ([1]; pKD values, agonist R-α-methylhistamine): 5.75 nM | Kd ([1]; pKD values, agonist S-α-methylhistamine): 5.25 nM | Kd ([1]; pKD values, agonist VUF 8430): 7.08 nM | Kd ([1]; pKD values, agonist histamine): 5.13 nM | Kd ([1]; pKD values, agonist imetit): 5.75 nM | Kd ([1]; pKD values, agonist immethridine): 3.8 nM | Kd ([1]; pKD values, agonist impentamine (first component of the response)): 4.17 nM | Kd ([1]; pKD values, agonist proxyfan): 2.75 nM | inverse agonist response, 3H-cAMP accumulation ([2]; 5 hours incubation with ligand): 120 ± 1.5 % basal | EC50 ([2]; 5 hours incubation with ligand, read-out: pEC50, inverse agonist response, 3H-cAMP accumulation (converted)): 3.09 nM
Structure (SMILES): C[C@H]1[C@H]2CC[C@H]3[C@@H]4CC=C5C[C@@H](N(C)C)CC[C@]5(C)[C@H]4CC[C@]23CN1C [conessine]

IC50 [1]: 16.2 nM | IC50 [2, 7]: 4.9 nM
Structure (SMILES): c1ccc(COCCCc2c[nH]cn2)cc1 [proxyfan]

IC50 [1]: 427 nM | agonist character in CRE-SPAP screen ([1]; CHO-H3-SPAP cells): partial agonist actions | IC50 [2, 7]: 224 nM
Structure (SMILES): CNC(=S)NCCCCc1cnc[nH]1 [burimamide]

Kd [5]: 2570 nM | Kd [1, 8]: 3090 nM | Kd [1, 9]: 3630 nM | Kd [1, 10]: 3630 nM | Kd [1, 11]: 7410 nM | Kd [1, 12]: 4790 nM | Kd ([1]; Log KD values, agonist imetit): 2630 nM | Kd [1, 13]: 2950 nM | Kd [1, 14]: 6170 nM | Kd [1, 15]: 4070 nM | intrinsic activity response in 3H-cAMP accumulation ([2]; 5 hours incubation with ligand): No responses
Structure (SMILES): CN(C)CCC(c1ccc(Cl)cc1)c1ccccn1 (centres unmarked) [chlorpheniramine]

Kd [5]: 2450 nM | Kd [1, 8]: 4570 nM | Kd [1, 9]: 2630 nM | Kd [1, 10]: 3390 nM | Kd [1, 11]: 5500 nM | Kd [1, 12]: 4470 nM | Kd ([1]; Log KD values, agonist imetit): 3720 nM | Kd [1, 13]: 2950 nM | Kd [1, 14]: 2240 nM | Kd [1, 15]: 5890 nM | intrinsic activity response in 3H-cAMP accumulation ([2]; 5 hours incubation with ligand): No responses
Structure (SMILES): Cc1ccc(/C(=C\CN2CCCC2)c2ccccn2)cc1 [triprolidine]

pIC50, CRE-SPAP ([1]; CHO-H3-SPAP cells): 5.66 ± 0.08 | pIC50, 3H-cAMP accumulation [2, 16]: 6.38 ± 0.07
Structure (SMILES): Br.Br.N=C(N)NCCSC(=N)N [VUF 8430, 2-[(aminoiminmethyl)amino]ethyl carbamimidothioic acid ester dihydrobromide]

Kd [5]: 19.1 nM | IC50 [1]: 25.1 nM | Kd [1, 8]: 11.2 nM | Kd [1, 9]: 25.1 nM | Kd [1, 10]: 17.8 nM | Kd [1, 11]: 19.5 nM | Kd [1, 12]: 17 nM | Kd ([1]; Log KD values, agonist imetit): 14.1 nM | Kd [1, 13]: 16.2 nM | Kd [1, 15]: 15.8 nM | agonist character in CRE-SPAP screen ([1]; CHO-H3-SPAP cells): agonist properties | IC50 [2, 7]: 3.89 nM | IC50 ([2]; pIC50, 3H-cAMP accumulation, 5 hours incubation, partial agonist response, 5 hours incubation with ligand): 3.8 nM
Structure (SMILES): Br.Br.c1nc(CCCC2CCNCC2)c[nH]1 [VUF 5681, 4-[3-(1H-imidazol-4-yl)propyl]piperidine dihydrobromide]
CRE-SPAP response in parent CHO-SPAP cells ([3]; presence and absence of 4 μM forskolin, up to 100 μM (10 μM for zolatidine, conessine, iodophenpropit, clobenpropit, clemastine)): A small decrease from maximum was seen only at the highest concentration (100 μM)

IC50 [1]: 20000 nM
Structure (SMILES): Cn1cnc(CCN)c1 [1-methylhistamine]

Kd [5]: 1910 nM | Kd [1, 8]: 2140 nM | Kd [1, 9]: 2240 nM | Kd [1, 10]: 2140 nM | Kd [1, 11]: 7760 nM | Kd [1, 12]: 2340 nM | Kd ([1]; Log KD values, agonist imetit): 2510 nM | Kd [1, 13]: 4170 nM | Kd [1, 14]: 2570 nM | Kd [1, 15]: 5750 nM | intrinsic activity response in 3H-cAMP accumulation ([2]; 5 hours incubation with ligand): No responses
Structure (SMILES): CC(C1=C(CCN(C)C)Cc2ccccc21)c1ccccn1 (centres unmarked) [dimethindine, dimethindene]

IC50 [1]: 0.437 nM | IC50 [2]: 0.123 nM
Structure (SMILES): N=C(N)SCCc1cnc[nH]1 [imetit]

IC50 [1]: 2570 nM
Structure (SMILES): CN(C)CCCSC(=N)N [dimaprit]
